In patent US20260000496A1, “MATERIALS AND METHODS FOR DRUG-INDUCED GINGIVAL OVERGROWTH” (Optimed Technology, Inc., priority 2019, published 2026):

Key:
MyD88 [1] = assay: Western blot of MyD88 in oral keratinocytes; type: cell-based, human
Procedure: (§1) Cell Culture. Normal human oral keratinocytes (NOKSI) and fibroblast (HOF) cells were maintained in Dulbecco […] Eagle's medium (Sigma-Aldrich, St. Louis, MO, USA) supplemented with 10% fetal bovine serum (Atlas Bio-logicals, Fort Collins, CO, USA) and 100 units/mL penicillin and 100 μg/mL streptomycin (LifeTechnologies, Carlsbad, CA, USA). Cells were grown in incubator at 37° C. in a humidified chamber with 5% CO2.
Drugs treatment in cell culture. The cells were treated alone or with different combination of lipopolysaccharide, cyclosporine, phenytoin, and folic acid. All of them were purchased from Sigma-Aldrich (St. Louis, MO, USA). Each of them were used from 0 μg/ml to 40 μg/ml and the optimum concentration were found 10 μg/ml.
(§2) Western blot analysis. Cells were seeded in 60 mm plates with a density of 5×10^5 cells per plate and washed briefly with Dulbecco's phosphate-buffered saline (Gibco, Waltham, MA, USA). Whole cell lysates were prepared using RIPA lysis buffer containing protease inhibitor cocktail (Sigma-Aldrich). Total protein concentration was determined using the BCA reagent (Pierce, Waltham, MA, USA). 20 μg of total protein were resolved on sodium dodecyl sulfate-polyacrylamide gel electrophoresis and transferred to polyvinylidenedifluoride membrane and immunoblotted. The blots were incubated for 1 h in 1% bovine serum albumin (BSA) (Sigma-Aldrich) to block the non-specific bindings followed by over-night incubation in primary antibodies (MyD88 and pP65 from Cell Signaling Technology, and human LITAF ThermoFisher Sigma) at 4° C. on shaker. Next day, blots were washed for three times (10 min each) in Tris-buffered saline containing 1% Tween20 (TBST) followed by incubation with secondary antibody (Goat anti-rabbit IgG HRP) with 1:10,000 dilution for 1 h. Following washes, bands were visualized using gel documentation Imaging Systems (BioRad). The band intensities were quantified using software ImageJ (NIH, USA) and relative protein levels were normalized by β-actin (Cell Signaling). To perform the western blot of animal tissue samples, the gingival tissues were collected from both BABLB/c and C57BL/6 mice studies. The soft tissues were separated from the mandibular bone and then crunched. The Bradford assay was performed to measure the protein concentration of each sample. After normalization, 20 μg of whole tissue protein lysate were proceeded for western blot analysis.

[2] = tested on: Collagen type I alpha 1 (Col1a1); assay: Collagen (Col1a1) expression in Human Oral Fibroblasts, QPCR; type: cell-based; details: HOF treated with conditioned media from Oral Keratinocytes containing LPS, CSA, Phenytoin or Folic acid (10 μg/ml), 24 hours; p<0.05
Procedure: as §1
Human Oral Fibroblasts (HOF) cells were seeded in 60 mm plates with a density of 2.5×10^4/cm^2 and treated with condition (CM) media collected from Oral Keratinocytes containing LPS (10 μg/ml), CSA (10 μg/ml), Phenytoin (10 μg/ml), or Folic acid (10 μg/ml) and incubated for 24 hours. The Collagen type I alpha 1 (Col1a1) gene expression was determined by QPCR. HOF cells were treated with rTGF-β, SB-431542 (SB), rTNF-α, or TNF-α inhibitor (TNF-α inh). Quantitative real-time PCR results showing the expression of Col1a1 in HOF cells after the treatment. (p<0.05).

Myd88 [3] = assay: Mice study #2: Myd88 immunoblotting of gingival samples; type: in vivo, C57BL/6 mice; details: three mice per group
Procedure: as §2, with “Following washes, bands were visualized using gel documentation Imaging Systems (BioRad).” left out, “[…] The band intensities were measured by” for “To perform”, “software ImageJ (NIH, USA), and relative protein levels” for “western blot of animal tissue samples, the gingival tissues”, “normalized by β-actin.” for “collected from both BABLB/c and C57BL/6 mice studies. The soft tissues were separated from the mandibular bone and then crunched. The Bradford assay was performed to measure the protein concentration of each sample. After normalization, 20 μg of whole tissue protein lysate were proceeded for western blot analysis.”

LITAF = assay: Mice study #2: LITAF immunoblotting of gingival samples; type: in vivo, C57BL/6 mice; details: pattern as for Myd88 (disease higher than control and treatment)
Procedure: as §2, with “Following washes, bands were visualized using gel documentation Imaging Systems (BioRad).” left out, “[…] The band intensities were measured by” for “To perform”, “software ImageJ (NIH, USA), and relative protein levels” for “western blot of animal tissue samples, the gingival tissues”, “normalized by β-actin.” for “collected from both BABLB/c and C57BL/6 mice studies. The soft tissues were separated from the mandibular bone and then crunched. The Bradford assay was performed to measure the protein concentration of each sample. After normalization, 20 μg of whole tissue protein lysate were proceeded for western blot analysis.”

`Nc1nc2ncc(CNc3ccc(C(=O)N[C@@H](CCC(=O)O)C(=O)O)cc3)nc2c(=O)[nH]1` [folic acid] was tested, and the MyD88 protein level (MyD88 [1]; LPS, CSA, FA each 10 μg/ml, 24 hours) was “inhibits CSA-induced expression”, the “amount of MYD88 protein” value (MyD88 [1]; LPS, Phe, FA each 10 μg/ml, 24 hours) was “MyD88 expression is reduced” and the “MyD88 by western blot, dose-dependent effects of FA” value (MyD88 [1]; different concentration of folic acid, 24 hrs) was “inhibition of MyD88”. For the same molecule, the “MyD88 by western blot, kinetics of downregulation” value (MyD88 [1]; different time points, FA 10 μg/ml) was “inhibition of MyD88”, the “MyD88 by western blot” value (MyD88 [1]; normal oral keratinocyte cells, FIG. 35) was “downregulation” and the “Collagen type I alpha 1 (Col1a1) gene expression” value [2] was “reduces the collagen expression”. For the same molecule, the “Myd88 expression, disease group relative to control and folic acid treatment group” value (Myd88 [3]) was “higher Myd88 expressions compared to the control and treatment group” and the “LITAF expression, pattern across groups” value (LITAF) was “a similar pattern”.
